Common to all, as to assay type: in vivo
One test has as its system Diabrotica balteata. In words: Diabrotica balteata spray test. Conditions: Diabrotica balteata, 168 h, after 7 days; for pest or weed control at 500 g/ha: application rate 500 g/ha (=160 μg/cavity); for pest or weed control at 20 g/ha: application rate 20 g/ha; for pest or weed control at 100 g/ha: application rate 100 g/ha. As to the method:
[table] To produce a suitable active compound formulation, 1 part by weight of active compound is dissolved using the stated parts by weight of solvent and made up with water containing an emulsifier concentration of 1000 ppm until the desired concentration is attained. To produce further test concentrations, the formulation is diluted with emulsifier-containing water. Pre-swollen wheat grains (Triticum aestivum) are incubated in a multiwell plate filled with agar and a little water for one day (5 seed grains per cavity). The germinated wheat grains are sprayed with an active compound formulation of the desired concentration. Subsequently, each cavity is infected with 10-20 beetle larvae of Diabrotica balteata. After 7 days, the efficacy in % is determined. 100% means that all wheat plants have grown as in the untreated, uninfected control; 0% means that no wheat plant has grown.

The subject of another test is Spodoptera frugiperda. The experiment in a line: Spodoptera frugiperda spray test (maize leaf discs). To be noted: Spodoptera frugiperda, foliar, 168 h, application rate 100 g/ha, after 7 days. As to the method: [table] To produce a suitable active compound formulation, 1 part by weight of active compound is dissolved using the stated parts by weight of solvent and made up with water containing an emulsifier concentration of 1000 ppm until the desired concentration is attained. To produce further test concentrations, the formulation is diluted with emulsifier-containing water. Leaf discs of maize (Zea mays) are sprayed with an active compound formulation of the desired concentration and, after drying, populated with caterpillars of the fall armyworm (Spodoptera frugiperda). After 7 days, the efficacy in % is determined. 100% means that all the caterpillars have been killed; 0% means that no caterpillar has been killed.

The subject of a further test is Nezara viridula. The experiment in a line: Nezara viridula spray test. Conditions: Nezara viridula, 96 h, application rate 500 g/ha, after 4 days. Here is the method:
[table] To produce a suitable active compound formulation, 1 part by weight of active compound is dissolved using the stated parts by weight of solvent and made up with water containing an emulsifier concentration of 1000 ppm until the desired concentration is attained. To produce further test concentrations, the formulation is diluted with emulsifier-containing water. Barley plants (Hordeum vulgare) are sprayed with an active compound formulation of the desired concentration and are infected with larvae of the Southern green shield bug (Nezara viridula). After 4 days, the efficacy in % is determined. 100% means that all of the shield bugs have been killed; 0% means that none of the shield bugs have been killed.

Regarding `CCS(=O)(=O)c1ccc(-n2ncn(-c3ccc(F)cc3)c2=O)nc1-c1nc2cc(S(=O)(=O)C(F)(F)Cl)ccc2o1` [Example I-07], the pest or weed control at 31.25 g/ha in the test with Diabrotica balteata (application rate 31.25 g/ha (=10 μg/cavity), read-out: efficacy) worked out at 100%. In addition, the pest or weed control at 125 g/ha in the test on Diabrotica balteata (application rate 125 g/ha (=40 μg/cavity), read-out: efficacy) is 100%. For the same compound, the pest or weed control at 500 g/ha in the test on Diabrotica balteata (read-out: efficacy) amounted to 100%. This compound also yielded a pest or weed control at 100 g/ha with Spodoptera frugiperda of 100%.
In the test on Diabrotica balteata, `CCS(=O)(=O)c1ccc(-n2ncn(-c3ccc(Cl)cc3)c2=O)nc1-c1nc2cc(S(=O)(=O)C(F)(F)Cl)ccc2o1` [Example I-08] displayed a pest or weed control at 20 g/ha of 100% and a pest or weed control at 100 g/ha of 80%. Also, in the test on Diabrotica balteata (read-out: efficacy), the pest or weed control at 500 g/ha amounted to 100%. The compound also displayed a pest or weed control at 100 g/ha in the test on Spodoptera frugiperda of 100%.
Consider `CCS(=O)(=O)c1ccc(-n2ncn(-c3ccc(Br)cc3)c2=O)nc1-c1nc2cc(S(=O)(=O)C(F)(F)Cl)ccc2o1` [Example I-09], for which the pest or weed control at 20 g/ha with Diabrotica balteata is 80%. The pest or weed control at 100 g/ha in the test with Spodoptera frugiperda came out at 100%.
For `CCS(=O)(=O)c1ccc(-n2ncn(-c3ccc(C#N)cc3)c2=O)nc1-c1nc2cc(S(=O)(=O)C(F)(F)Cl)ccc2o1` [Example I-10], in the test with Diabrotica balteata, the pest or weed control at 20 g/ha turned out to be 80% and the pest or weed control at 100 g/ha came out at 100%. For the same compound, the pest or weed control at 500 g/ha in the test with Diabrotica balteata (read-out: efficacy) was found to be 100%.
In the case of `CCS(=O)(=O)c1ccc(-n2ncn(-c3ccc(I)cc3)c2=O)nc1-c1nc2cc(S(=O)(=O)C(F)(F)Cl)ccc2o1` [Example I-11], the pest or weed control at 100 g/ha in the test on Diabrotica balteata and with Spodoptera frugiperda was 100% in each case. In addition, the pest or weed control at 500 g/ha with Diabrotica balteata (read-out: efficacy) was determined as 100%.
In the test with Diabrotica balteata, `CCS(=O)(=O)c1ccc(-n2ncn(-c3ccc(I)cc3)c2=O)nc1-c1nc2cc(S(=O)(=O)C(F)(F)F)ccc2o1` [Example I-12] yielded a pest or weed control at 20 g/ha of 100% and a pest or weed control at 100 g/ha of 100%. For the same compound, the pest or weed control at 500 g/ha in the test with Diabrotica balteata (read-out: efficacy) was 100%. Also, the pest or weed control at 100 g/ha in the test with Spodoptera frugiperda is 100%.
As for `CCS(=O)(=O)c1ccc(-n2ncn(-c3cccc(Cl)c3)c2=O)nc1-c1nc2cc(S(=O)(=O)C(F)(F)F)ccc2o1` [Example I-13], the pest or weed control at 20 g/ha with Diabrotica balteata stood at 100%. In addition, the pest or weed control at 100 g/ha in the test on Diabrotica balteata and in the test with Spodoptera frugiperda was 100% each time. Besides, in the test on Diabrotica balteata (read-out: efficacy), the pest or weed control at 500 g/ha stood at 100%.
Take `CCS(=O)(=O)c1ccc(-n2ncn(-c3cccc(Br)c3)c2=O)nc1-c1nc2cc(S(=O)(=O)C(F)(F)F)ccc2o1` [Example I-15]: in the test with Diabrotica balteata, the pest or weed control at 20 g/ha is 100% and the pest or weed control at 100 g/ha is 100%. For the same compound, the pest or weed control at 500 g/ha in the test with Diabrotica balteata (read-out: efficacy) is 100%. The compound further returned a pest or weed control at 100 g/ha in the test on Spodoptera frugiperda of 100%.
In the test on Diabrotica balteata, `CCS(=O)(=O)c1ccc(-n2ncn(-c3ccc(C4(C#N)CC4)cc3)c2=O)nc1-c1nc2cc(S(=O)(=O)C(F)(F)F)ccc2o1` [Example I-17] registered a pest or weed control at 20 g/ha of 100% and a pest or weed control at 100 g/ha of 100%. Also, the pest or weed control at 500 g/ha with Diabrotica balteata (read-out: efficacy) stood at 100%.
In the test on Diabrotica balteata, `CCS(=O)(=O)c1ccc(-n2ncn(-c3ccc(Cl)c(Br)c3)c2=O)nc1-c1nc2cc(S(=O)(=O)C(F)(F)F)ccc2o1` [Example I-19] returned a pest or weed control at 20 g/ha of 100%. Besides, the pest or weed control at 100 g/ha with Diabrotica balteata and with Spodoptera frugiperda was 100% each time.
Turning to `CCS(=O)(=O)c1ccc(-n2ncn(-c3ccc(Br)c(Cl)c3)c2=O)nc1-c1nc2cc(S(=O)(=O)C(F)(F)F)ccc2o1` [Example I-20], in the test with Diabrotica balteata, the pest or weed control at 20 g/ha was 100% and the pest or weed control at 100 g/ha amounted to 100%. Moreover, the pest or weed control at 100 g/ha with Spodoptera frugiperda amounted to 100%.
For the compound `CCS(=O)(=O)c1ccc(-n2ncn(-c3ccc(Cl)cc3)c2=O)nc1-c1nc2cc(OC(F)(F)C(F)(F)F)ccc2o1` [Example I-21], the pest or weed control at 100 g/ha in the test with Diabrotica balteata and in the test with Spodoptera frugiperda was 100% in each case.
In the test on Diabrotica balteata, `CCS(=O)(=O)c1ccc(-n2ncn(-c3ccc(F)cc3)c2=O)nc1-c1nc2cc(OC(F)(F)C(F)(F)F)ccc2o1` [Example I-22] had a pest or weed control at 20 g/ha of 100% and a pest or weed control at 100 g/ha of 100%. The compound also returned a pest or weed control at 100 g/ha with Spodoptera frugiperda of 100%.
Turning to `CCS(=O)(=O)c1ccc(-n2ncn(-c3ccc(Br)cc3)c2=O)nc1-c1nc2cc(OC(F)(F)C(F)(F)F)ccc2o1` [Example I-23], the pest or weed control at 100 g/ha in the test on Diabrotica balteata and in the test on Spodoptera frugiperda was 100% throughout.
In the test with Diabrotica balteata, `CCS(=O)(=O)c1ccc(-n2ncn(-c3cccc(F)c3)c2=O)nc1-c1nc2cc(OC(F)(F)C(F)(F)F)ccc2o1` [Example I-24] displayed a pest or weed control at 20 g/ha of 100% and a pest or weed control at 100 g/ha of 100%. For the same compound, the pest or weed control at 100 g/ha in the test on Spodoptera frugiperda worked out at 100%.
As to `CCS(=O)(=O)c1ccc(-n2ncn(-c3cccc(Cl)c3)c2=O)nc1-c1nc2cc(OC(F)(F)C(F)(F)F)ccc2o1` [Example I-25], in the test with Diabrotica balteata, the pest or weed control at 20 g/ha stood at 100% and the pest or weed control at 100 g/ha turned out to be 100%. Besides, in the test with Spodoptera frugiperda, the pest or weed control at 100 g/ha was found to be 100%.
Take `CCS(=O)(=O)c1ccc(-n2ncn(-c3cccc(Br)c3)c2=O)nc1-c1nc2cc(OC(F)(F)C(F)(F)F)ccc2o1` [Example I-26]: in the test with Diabrotica balteata, the pest or weed control at 20 g/ha stood at 100% and the pest or weed control at 100 g/ha is 100%. In the test on Spodoptera frugiperda, this compound returned a pest or weed control at 100 g/ha of 100%.
`CCS(=O)(=O)c1ccc(-n2ncn(-c3ccc(C#N)c(Cl)c3)c2=O)nc1-c1nc2cc(S(=O)(=O)C(F)(F)F)ccc2o1` [Example I-28] had a pest or weed control at 20 g/ha in the test with Diabrotica balteata of 100%. Also, in the test on Spodoptera frugiperda, the pest or weed control at 100 g/ha turned out to be 100%.
In the test with Diabrotica balteata, `CCS(=O)(=O)c1ccc(-n2ncn(-c3cccc(C#N)c3)c2=O)nc1-c1nc2cc(OC(F)(F)C(F)(F)F)ccc2o1` [Example I-30] showed a pest or weed control at 20 g/ha of 100% and a pest or weed control at 100 g/ha of 100%. The same compound registered a pest or weed control at 100 g/ha with Spodoptera frugiperda of 100%.
`CCS(=O)(=O)c1ccc(-n2ncn(-c3cccc(C4(C#N)CC4)c3)c2=O)nc1-c1nc2cc(OC(F)(F)C(F)(F)F)ccc2o1` [Example I-31]: the pest or weed control at 20 g/ha in the test on Diabrotica balteata stood at 100%. Besides, in the test on Spodoptera frugiperda, the pest or weed control at 100 g/ha stood at 100%.
Consider `CCS(=O)(=O)c1ccc(-n2ncn(-c3ccc(F)cc3)c2=O)nc1-c1nc2cc(OC(F)(F)F)ccc2o1` [Example I-33], for which the pest or weed control at 500 g/ha with Nezara viridula was found to be 100%.
The same measure, in the same setting: the figure for `CCS(=O)(=O)c1ccc(-n2ncn(-c3ccc(F)cc3)c2=O)nc1-c1nc2cc(C(F)(F)F)ncc2o1` [Example I-35] is 100%; for `CCS(=O)(=O)c1ccc(-n2ncn(-c3ccc(F)cc3)c2=O)nc1-c1nc2cc(C(F)(F)F)ccc2o1` [Example I-36] it is 100%.
`CCS(=O)(=O)c1ccc(-n2ncn(C3CCCC3)c2=O)nc1-c1nc2cc(C(F)(F)C(F)(F)F)ccc2o1` [Example I-38] gave a pest or weed control at 100 g/ha in the test on Spodoptera frugiperda of 100%.
As for `CCS(=O)(=O)c1ccc(-n2ncn(-c3cncc(F)c3)c2=O)nc1-c1nc2cc(S(=O)(=O)C(F)(F)F)ccc2o1` [Example I-40], the pest or weed control at 100 g/ha in the test with Diabrotica balteata and with Spodoptera frugiperda was 100% throughout.
Regarding `CCS(=O)(=O)c1ccc(-n2ncn(-c3ccc(Br)cc3)c2=O)nc1-c1nc2cc(C(F)(F)C(F)(F)F)ccc2o1` [Example I-48], the pest or weed control at 100 g/ha in the test on Diabrotica balteata and in the test on Spodoptera frugiperda was 100% throughout.
As for `CCS(=O)(=O)c1ccc(-n2ncn(C3CC3)c2=O)nc1-c1nc2cc(OC(F)(F)C(F)(F)F)ccc2o1` [Example I-49], in the test on Diabrotica balteata, the pest or weed control at 20 g/ha was 100% and the pest or weed control at 100 g/ha was found to be 80%. In the test with Spodoptera frugiperda, the pest or weed control at 100 g/ha was 100%.
With `CCS(=O)(=O)c1ccc(-n2ncn(C3CC3)c2=O)nc1-c1nc2cc(C(F)(F)C(F)(F)F)ccc2o1` [Example I-50], in the test with Diabrotica balteata, the pest or weed control at 20 g/ha was found to be 100% and the pest or weed control at 100 g/ha was 100%. Besides, in the test with Spodoptera frugiperda, the pest or weed control at 100 g/ha amounted to 100%.
Turning to `CCS(=O)(=O)c1ccc(-n2ncn(-c3ccc(Cl)cc3)c2=O)cc1-c1nc2cc(Br)ccc2o1` [Example I-53], the pest or weed control at 100 g/ha with Diabrotica balteata and in the test on Spodoptera frugiperda was 100% each time.
Consider `CCS(=O)(=O)c1ccc(-n2ccn(-c3cccc(C4(C#N)CC4)c3)c2=O)nc1-c1nc2cc(C(F)(F)C(F)(F)F)ccc2o1` [Example I-54], for which, in the test on Diabrotica balteata, the pest or weed control at 20 g/ha is 100% and the pest or weed control at 100 g/ha came to 100%. In addition, in the test with Spodoptera frugiperda, the pest or weed control at 100 g/ha is 100%.
As to `CCS(=O)(=O)c1ccc(-n2ncn(-c3ccc(F)cn3)c2=O)nc1-c1nc2cc(S(=O)(=O)C(F)(F)F)ccc2o1` [Example I-55], the pest or weed control at 100 g/ha with Diabrotica balteata and in the test on Spodoptera frugiperda was 100% in each case.

For the origin of these results see US20230212163A1, “2-(HET)ARYL-SUBSTITUTED CONDENSED HETEROCYCLIC DERIVATIVES AS PEST CONTROL AGENTS” (Bayer Aktiengesellschaft, priority 2020, published 2023).
